From patent publication US20210346401A1, “REGULATOR OF TGR5 SIGNALING AS IMMUNOMODULATORY AGENT” (YICHANG HUMANWELL PHARMACEUTICAL CO., LTD, priority 2018, published 2021)

Key:
[1] = tested on: monocytes; details: monocytes in vitro; cited from earlier work
[2] = tested on: TGR5; details: Tgr5+/+ macrophages (BMDMs); infected half an hour, then treatment for 6 hours
[3] = tested on: Raw264.7 cells; assay: Induction of phosphorylation of TBK1 and IRF3 by BAs (immunoblotting); format: cell-based; details: indicated concentrations of CDCA and LCA
Protocol: (§1) E. Induction of phosphorylation of TBK1 and IRF3 by BAs. Raw264.7 cells were treated by the indicated concentrations of CDCA and LCA, followed by immunoblotting analysis with the indicated antibodies. Cells were lysed with RIPA buffer plus complete protease inhibitors and 20 mM NEM, and lysates were sonicated for 1 min. The lysates were centrifuged at 14000 rpm for 20 min at 4° C. The supernatants were incubated with respective antibodies at 4° C. overnight before protein G beads were added for 2 h. The beads were washed with cold PBS plus 0.5 M NaCl for three times followed by an additional wash with PBS. Proteins were separated by 8% SDS-PAGE, followed by immunoblot analysis with the indicated antibodies.

[4] = tested on: VSV-GFP; format: cell-based
[5] = tested on: Raw264.7 cells; assay: Induction of type I IFNs and other antiviral genes by BAs (qPCR); format: cell-based; details: indicated concentrations of BAs
Protocol: D. Induction of type I IFNs and other antiviral genes by BAs. Raw264.7 cells were treated by the indicated concentrations of the indicated BAs, followed by qPCR analysis of the expression of the indicated genes. L. Induction of type I IFNs and other antiviral genes by BAs. Raw264.7 cells were treated with LCA (200 μM) or CDCA (200 μM) for the indicated times, followed by qPCR analysis of the expression of the indicated genes.

[6] = tested on: SRC; assay: Induction of pY416 of SRC by INT-777 and BA treatments (immunoblotting); format: cell-based; details: HEK293 cells, treatment for 1 hours
Protocol: G. Induction of pY416 of SRC by INT-777 and BA treatments. HEK293 cells were treated with DMSO, INT-777 or the indicated BAs for 1 hours, followed by immunoblotting analysis with the indicated antibodies.
as §1, with “Cells” for “E. Induction of phosphorylation of TBK1 and IRF3 by BAs. Raw264.7 cells were treated by the indicated concentrations of CDCA and LCA, followed by immunoblotting analysis with the indicated antibodies. Cells”

[7] = tested on: THP1 cells; assay: Effects of kinase inhibitors on virus-induced expression of BA metabolism genes and IFNB1 (qPCR); format: cell-based, human; details: inhibitor treatment, then HSV-1 or SeV for 4 hours

## C[C@H](CCC(=O)O)[C@H]1CC[C@H]2[C@@H]3[C@H](O)C[C@@H]4C[C@H](O)CC[C@]4(C)[C@H]3CC[C@]12C [CDCA, chenodeoxycholic acid]
[1]
  production of interleukin-1, interleukin-6 and tumor necrosis factor-α: inhibits
[2]
  HSV-1- and SeV-induced transcription of Ifnb1: potentiated
[3]
  phosphorylation of TBK1 and IRF3: induced phosphorylation
[4]
  VSV-GFP replication: dramatically inhibited
[5]
  transcription of downstream innate immunity genes including IFNB1, CXCL10 and ISG56: potently induced

## CC[C@H]1[C@@H](O)[C@@H]2[C@H](C[C@H](O)[C@]3(C)[C@@H]([C@H](C)C[C@H](C)C(=O)O)CC[C@@H]23)[C@@]2(C)CC[C@@H](O)C[C@@H]12 [INT-777]
[2]
  HSV-1- and SeV-induced transcription of Ifnb1: potentiated
[6]
  phosphorylation of SRC at Y416: induced phosphorylation

## Cc1ccc2nc(NCCN)c3ncc(C)n3c2c1 [BMS-345541]
[7]
  HSV-1- and SeV-induced transcription of CYP7A1, CYP7B1, CYP27A1 and OATP genes: abolished
